According to ChEMBL document CHEMBL3045161, “Evaluation of fungicides and biocontrol agents against grey blight disease of tea in the field” (2008):
Activity calls are given as the source filed them. The calls are words filed in the database; no cut-off is given here.

Key:
[1] = system: Pseudopestalotiopsis theae; assay: Fungicidal activity against Pestalotiopsis theae infested tea plant in nursery assessed as reduction in plant casuality at 5 % sprayed on topsoil measured after 90 days; format: functional, organism-based
[2] = system: Pseudopestalotiopsis theae; assay: Fungicidal activity against Pestalotiopsis theae infested tea plant in nursery assessed as reduction in plant casuality at 0.05 % sprayed on topsoil measured after 90 days (reference value: 58 %); format: functional; design: scale not given: the % may be the effect or the level left
[3] = system: Pseudopestalotiopsis theae; assay: Fungicidal activity against grey blight disease-causing Pestalotiopsis theae infested tea plantation assessed as green leaf yield which made tea at 0.05 % applied as foliar spray (reference value: 2884 kg/ha ); format: functional
[4] = system: Pseudopestalotiopsis theae; assay: Fungicidal activity against grey blight disease-causing Pestalotiopsis theae infested tea plantation assessed as disease incidence at 0.05 % applied as foliar spray (reference value: 39.2 %); format: functional
[5] = system: Pseudopestalotiopsis theae; assay: Fungicidal activity against grey blight disease-causing Pestalotiopsis theae infested tea plantation assessed as green leaf yield which made tea compound applied on shears during hravesting (reference value: 3044 kg/ha); format: functional
[6] = system: Pseudopestalotiopsis theae; assay: Fungicidal activity against grey blight disease-causing Pestalotiopsis theae infested tea plantation assessed as disease incidence compound applied on shears during hravesting (reference value: 47 %); format: functional
[7] = system: Pseudopestalotiopsis theae; assay: Fungicidal activity against Pestalotiopsis theae infested tea plant in nursery assessed as reduction in plant casuality at 3 % sprayed on topsoil measured after 90 days; format: functional, organism-based

SMILES: COC(=O)Nc1nc2ccccc2[nH]1 [CARBENDAZIM]
- Activity [1]: Active
- Activity [2]: 5%
- Crop_yield [3]: 3845 kg/ha
- Activity [4]: 6.6%

SMILES: COC(=O)NC(=S)Nc1ccccc1NC(=S)NC(=O)OC [THIOPHANATE METHYL]
- Crop_yield [5]: 3457 kg/ha
- Activity [6]: 17.5%
- Activity [7]: Active
- Activity [2]: 3%
- Crop_yield [3]: 3886 kg/ha
- Activity [4]: 5.6%
